# US20240123076A1, “UNSATURATED DENDRIMERS COMPOSITIONS, RELATED FORMULATIONS, AND METHODS OF USE THEREOF” (The Board of Regents of The University of Texas System, priority 2021, published 2024)
# Entries after “also recorded” stand apart in the source; their conditions may differ.
# Columns and labels:
# IGROV-1 cells = assay: In vitro luciferase expression of Luc mRNA LNPs; type: cell-based; details: IGROV-I cells, 25 ng mRNA per well, 24 h; lipid:DOPE:cholesterol:DMG-PEG2k 15:15:30:3
# Procedure: Ionizable lipid, DOPE, cholesterol, DMG-PEG2k were dissolved in ethanol as noted below (S2, base formulation). Firefly Luciferase (Luc) mRNA was diluted in 10 mM citric acid-sodium citrate buffer (pH 4.4). The lipid mixture and nucleic acid solution were rapidly combined at a volumetric ratio of 3:1 nucleic acid:lipid mix. Afterwards, the LNP formulations were diluted with 1×PBS to 1 ng/uL concentration.
# IGROV-1 cells were seeded into white 96-well plates at a density of 1×10^4 cells per well the day before transfection with media. Day of transfection, the media was replaced with 200 μL of fresh media. Then, 25 μL of the Luc mRNA formulations were added with a fixed dose of 25 ng mRNA per well. After incubation for another 24 hours, ONE-Glo+ Tox kits (Promega) were used to detect Luc mRNA expression and cytotoxicity.
# C57BL/6 mice [1] = assay: In vivo luciferase mRNA delivery (bioluminescence imaging, liver); details: 4-component LNP, tail vein, 0.25 mg/kg Luc mRNA, 6 h
# Procedure: Ionizable lipid(s), DOPE, cholesterol, DMG-PEG2k were dissolved in ethanol as noted below in S2, and the Luc mRNA was diluted in 10 mM citric acid-sodium citrate buffer (pH 4.4) at the desired dosage. The lipid mixture and nucleic acid dilution were rapidly combined at a volumetric ratio of 3:1 nucleic acid:lipid mix. The nanoparticles were dialyzed against 1×PBS in Pur-A-Lyzer midi dialysis chambers (Sigma-Aldrich, WMCO 3.5 kDa) for 2 hours prior to injection.
# All experiments were approved by the Institutional Animal Care & Use Committee (IACUC) of The University of Texas Southwestern Medical Center and were consistent with local, state and federal regulations as applicable. Female C57BL/6 mice (18-20 g) were injected with LNP formulations via tail vein injection (5 ug of mRNA, 0.25 mg/kg). After 6 h, the luciferase expression was evaluated by live animal bioluminescence imaging. Animals were anesthetized under isofluorane, and D-Luciferin (150 mg/kg) was introduced by intraperitoneal injection. Then, the luciferase activity was imaged, and ex vivo imaging was performed on systemic organs after resection on an IVIS Lumina system (Perkin Elmer). The images were processed using Living Image analysis software (Perkin Elmer).
# C57BL/6 mice [2] = assay: Biodistribution of Cy5 Luc mRNA LNPs (ex vivo imaging); type: in vivo; details: IV, 0.25 mg/kg, 6 hours, ex vivo organs
# IGROVI cells = assay: Cellular uptake and intracellular trafficking of Cy5-labeled mRNA LNPs (confocal imaging); type: cell-based; details: for co-localization of Cy5 mRNA with lysosomes: 4 h and 24 h after incubation; for cellular uptake (internalization) of Cy5 Luc mRNA LNPs: at 4 hours and 24 hours
# Procedure: Flash chromatography was performed on a Teledyne Isco CombiFlash Rf-200i chromatography system equipped with UV-Vis and evaporative light scattering detectors (ELSD) or manually using 60 Å, 40-63 um Silica (Sorbtech) or activated, neutral Aluminum Oxide (Sigma-Aldrich). Particle sizes and PDI were measured by Dynamic Light Scattering (DLS) using a Malvern Zetasizer Nano ZS (He-Ne laser, λ=632 nm). Confocal microscopy was conducted using a Zeiss LSM-710 laser scanning confocal microscope and data analyzed with the Zeiss LSM-710 software.
# Cellular uptake and intracellular trafficking was further examined, in vitro experiments were performed using Cy5-labeled mRNA LNPs. […] The progression of Cy5 mRNA was further tracked from the cell membrane to endosomes to lysosomes and quantified co-localization of Cy5 mRNA with lysosomes. […] The overall results connected chemical structure to factors including cellular uptake, endosomal escape, and intracellular trafficking.
# [3] = Lipid fusion assay (FRET); details: PBS pH 5.5, 37° C., 5 min
# Procedure: Endosome mimicking anionic liposomes were prepared by mixing DOPS:DOPC:DOPE:NBD-PE:N-Rh-PE (25:25:48:1:1 molar ratio) in CHCl3 at a fixed total lipid concentration of 1 mM. Afterwards, the film was created by rotary evaporation of the solution, followed by 2 h of vacuum drying to produce a thin lipid film.
# LNPs were formulated with the in vivo method. 100 uL PBS (pH 5.5) was added to each well in a black 96-well plate (n=3 per sample), and 1 μL of endosome mimicking anionic liposomes (1 mM) was added to each well. Endosome mimicking anionic liposomes in PBS served as the negative control (Fmin), and the endosome mimic lipids incubated with 2% Triton-X in PBS solutions were set as positive control (Fmax). 10 μL of LNPs being tested were added to the wells (n=3). After incubating at 37° C. for 5 min., fluorescence measurements (F) were conducted on a microplate reader at Ex/Em=465/520 nm. The lipid fusion (%) was calculated as (F−Fmin)/(Fmax−Fmin)*100%.
# Fluorescence resonance energy transfer (FRET)-based assay was employed to determine the LNP's ability to disrupt and fuse with the endosomal membrane (FIG. 4). DOPE-conjugated FRET probes (NBD-PE and N—Rh-PE) were formulated into endosome-mimicking nanoparticles. NBD is normally quenched by the rhodamine, but the NBD signal would rise if disruption of the membrane occurred. […]
Structure (SMILES),biodistribution of Cy5 Luc mRNA (ROI values) (C57BL/6 mice [2]),co-localization of Cy5 mRNA with lysosomes (IGROVI cells),cellular uptake (internalization) of Cy5 Luc mRNA LNPs (IGROVI cells),further results
C/C=C/CCCSC(C)C(=O)OCCOC(=O)CCN(CCCN(C)CCCN(CCC(=O)OCCOC(=O)C(C)SCCC/C=C/C)CCC(=O)OCCOC(=O)C(C)SCCC/C=C/C)CCC(=O)OCCOC(=O)C(C)SCCC/C=C/C (centres unmarked) [4A3-4T],,,,Luc mRNA expression (in vitro Luc mRNA delivery) (IGROV-1 cells): most potent
CC/C=C\C/C=C\CSC(C)C(=O)OCCOC(=O)CCN(CCCN(C)CCCN(CCC(=O)OCCOC(=O)C(C)SC/C=C\C/C=C\CC)CCC(=O)OCCOC(=O)C(C)SC/C=C\C/C=C\CC)CCC(=O)OCCOC(=O)C(C)SC/C=C\C/C=C\CC (centres unmarked) [4A3-8/2],,,,Luc mRNA expression in vivo (mRNA delivery) (C57BL/6 mice [1]): lower Luc expression compared to its alkyl partner
CC(C)=CCCC(C)CCSC(C)C(=O)OCCOC(=O)CCN(CCCN(C)CCCN(CCC(=O)OCCOC(=O)C(C)SCCC(C)CCC=C(C)C)CCC(=O)OCCOC(=O)C(C)SCCC(C)CCC=C(C)C)CCC(=O)OCCOC(=O)C(C)SCCC(C)CCC=C(C)C (centres unmarked) [4A3-Cit],no statistical difference; also recorded: did not change the biodistribution,reduced colocalization with lysosomes,effectively internalized,"Luc mRNA expression in vivo (mRNA delivery) (C57BL/6 mice [1]; 0.25 mg/kg): performed better than 4A3-Ne; also recorded: highest efficacy; speed of internalization of Cy5 Luc mRNA LNPs (IGROVI cells; at 4 hours, versus saturated 4A3-SC8 LNPs): internalizing slightly faster; lipid fusion with the model endosomal membrane [3]: efficacious; also recorded: highest lipid fusion ability"
"CCCCCCCCSC(C)C(=O)OCCOC(=O)CCN(CCCN(C)CCCN(CCC(=O)OCCOC(=O)C(C)SCCCCCCCC)CCC(=O)OCCOC(=O)C(C)SCCCCCCCC)CCC(=O)OCCOC(=O)C(C)SCCCCCCCC (centres unmarked) [4A3-SC8, reference compound]",no statistical difference,reduced colocalization with lysosomes,effectively internalized,
